Test results published in US12234211B2, “Cycloolefin substituted heteroaromatic compounds and their use” (HUTCHISON MEDIPHARMA LIMITED, priority 2017, dated 2025).
pIC50: −log10 of the molar value. Values after ≈ are worked out from the molar mass of the structure shown. Like-named read-outs stand apart in the source and are kept apart here.

Columns and labels:
[1] = Determination of solubility in sodium phosphate buffers; format: physicochemical; settings: aqueous buffer, thermodynamic from solid
Procedure: • Sample standard solution: About 3-5 mg test compound was accurately weighed and added into a 5 mL sample tube, 5 mL DMSO was added. Shaking and sonicating for 1 hour. • pH 2.1 sample solution: About 1 mg test compound was accurately weighed and added into a 1 mL sample tube, 1 mL pH 2.1 sodium phosphate buffer was added. Shaking. Adding test compound to the solution, if the solution is visually clear, till there is obvious insoluble in the solution. Sonicating for 1 hour. • pH 7.4 sample solution: About 1 mg test compound was accurately weighed and added into a 1 mL sample tube, 1 mL pH 7.4 sodium phosphate buffer was added. Shaking. Adding test compound to the solution, if the solution is visually clear, till there is obvious insoluble in the solution. Sonicating for 1 hour. 2. Determination • 1 mL sample standard solution was accurately pipetted into a HPLC tube. The peak area was determined by HPLC. • 0.5 mL pH 2.1 sample solution was filtered by syringe filter and was accurately pipetted into a HPLC tube, and 0.5 mL pH 2.1 sodium phosphate buffer was accurately added. Shaking. The peak area was determined by HPLC. • 0.5 mL pH 7.4 sample solution was filtered by syringe filter and was accurately pipetted into a HPLC tube, and 0.5 mL pH 7.4 sodium phosphate buffer was accurately added. Shaking. The peak area was determined by HPLC. • HPLC condition: • Instrument: Agilent 1200 • Column: Agilent SB-C18 5 u 4.6*150 mm • Mobile phase: • Phase A: Water (containing 0.1% formic acid) • Phase B: MeOH (containing 0.1% formic acid)

IDH2-R140Q = biological target: T1, IDH2-R140Q (Homo sapiens, UniProt P48735, R140Q); test: Fluorescent determination of IDH2-R140Q cell activity (2-HG in U87MGR140Q cells); format: cell-based; settings: 72 hours incubation, read-out: IC50 (2-HG inhibition)
T1 construct: expressed in transfected cells
T1 sequence (P48735 40-452 R140Q): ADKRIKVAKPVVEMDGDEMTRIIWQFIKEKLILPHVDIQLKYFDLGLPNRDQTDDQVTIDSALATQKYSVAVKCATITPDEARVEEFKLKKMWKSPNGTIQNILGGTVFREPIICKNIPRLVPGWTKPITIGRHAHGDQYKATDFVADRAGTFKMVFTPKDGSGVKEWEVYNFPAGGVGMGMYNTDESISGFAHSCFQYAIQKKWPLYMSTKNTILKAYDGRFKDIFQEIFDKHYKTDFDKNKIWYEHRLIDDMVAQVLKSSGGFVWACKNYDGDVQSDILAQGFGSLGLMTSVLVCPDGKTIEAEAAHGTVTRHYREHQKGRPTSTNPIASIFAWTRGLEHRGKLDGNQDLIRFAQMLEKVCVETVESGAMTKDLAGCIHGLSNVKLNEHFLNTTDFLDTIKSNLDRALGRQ

IDH1-R132H = biological target: T2, IDH1-R132H (Homo sapiens, UniProt O75874, R132H); test: Fluorescent determination of IDH1-R132H cell activity (2-HG in U87MGR132H cells); format: cell-based; settings: 2-HG inhibition in U87MGR132H cells transfected with IDH1-R132H mutant plasmid
T2 construct: expressed in transfected cells; host or cells: U87MG cells (U87MGR132H)

[2] = Metabolic stability test in liver microsomes (rat); format: in vitro ADME; settings: percentage of remaining compound after incubation for 30 minutes vs 0 minute; 1 μM compound; 0.5 mg/mL liver microsomes; 37° C.
Procedure: (§1) Male CD1 mouse liver microsomes was supplied by Research Institute for Liver Diseases (Shanghai) Co., Ltd. Male SD rat liver microsomes was supplied by BioreclamationIVT in US.
(§2) Phenacetin, glucose-6-phosphate (G-6-P), glucose-6-phosphate dehydrogenase (G-6-PD), and nicotinamide adenine dinucleotide phosphate (NADP) were supplied by Sigma-Aldrich (Missouri, USA).
(§3) 10 mM stock solution of test compound: Certain amount of test compound was weighed and dissolved in certain volume of dimethylsulfoxide (DMSO) to get the stock solution of test compound at 10 mM.
(§4) Reaction termination solution: Certain amount of phenacetin as internal standard was weighed and dissolved in acetonitrile to get the reaction termination solution at 1000 ng/mL, and stored at room temperature for use.
(§5) The stock solution of test compound was diluted to the designated concentration with organic solution (usually the mixtures of acetonitrile, methanol and water with different portions depending on the compound solution) to make the final concentration to be 1 μM and the contents of organic solvents no more than 1% (For DMSO, the controlled margin was 0.1%) in the final incubation system. 100 mM NADP, 500 mM G-6-P and 100 U/mL G-6-PDH were mixed and diluted with ultrapure water to provide the NADPH regenerating system containing 1 mM NADP, 5 mM G-6-P and 1 U/mL G-6-PD, which was pre-incubated at 37° C. water-bath for 10 min and then cooled on ice until being added into the reaction system. 20 mg/mL liver microsomes was mixed with 200 mM PBS and diluted with ultrapure water to make the concentrations of liver microsomes and PBS to be 0.5 mg/mL and 50 mM in the final incubation system, respectively. After the diluted liver microsomes was mixed with the NADPH regenerating solution, certain volumes of 100 mM EDTA and 300 mM MgCl2 (concentration of EDTA and MgCl2 in the final incubation system is 1 mM and 3 mM, respectively) were added, and the incubation system was put into 37° C. water bath. The incubation was commenced by adding the stock solution of test compound and maintained for 30 min. The incubation was terminated by adding the reaction termination solution. The 0 min sample was prepared by adding the reaction termination solution to the incubation system immediately prior to putting the system into the water bath with the addition of the stock solution of test compound. The terminated incubation mixtures were vortexed and centrifuged at 4400 rpm for 10 min, and the supernatant was collected for LC-MS/MS analysis.
(§6) The concentration of test compound was determined using LC-MS/MS method. Using the peak area ratio of the compound and the internal standard as an index, the percentage of remaining compound after incubation for 30 minutes as compared with the 0 minute sample was calculated, and the metabolic stability of the compound was evaluated.

[3] = Metabolic stability test in liver microsomes (mouse); format: in vitro ADME; settings: percentage of remaining compound after incubation for 30 minutes vs 0 minute; 1 μM compound; 0.5 mg/mL liver microsomes; 37° C.
Procedure: as §1, §2, §3, §4, §5, §6

[4] = pH 2.1 sodium phosphate buffer, read-out: Solubility pH 2.1
[5] = pH 7.4 sodium phosphate buffer, read-out: Solubility pH 7.4

T2 sequence (O75874 whole entry R132H): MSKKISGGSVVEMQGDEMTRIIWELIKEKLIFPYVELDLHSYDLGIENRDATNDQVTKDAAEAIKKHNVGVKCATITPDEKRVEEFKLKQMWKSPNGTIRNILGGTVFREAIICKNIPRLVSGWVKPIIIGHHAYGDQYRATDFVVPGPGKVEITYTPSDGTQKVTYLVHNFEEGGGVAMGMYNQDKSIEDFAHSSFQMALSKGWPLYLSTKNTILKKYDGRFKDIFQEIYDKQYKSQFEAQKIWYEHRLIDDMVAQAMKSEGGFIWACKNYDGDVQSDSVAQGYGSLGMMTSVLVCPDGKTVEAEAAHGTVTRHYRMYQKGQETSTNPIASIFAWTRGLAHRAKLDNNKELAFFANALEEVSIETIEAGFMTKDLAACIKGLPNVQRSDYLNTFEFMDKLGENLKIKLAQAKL

## C[C@@H](Nc1nc(NCc2ccccn2)nc(C2=C(F)C(O)C(F)(F)CC2)n1)C(F)(F)F (mixture of isomers) [Compound 271]
[1]; [4]
  solubility at 1 h: 974 µg/mL
[1]; [5]
  solubility at 1 h: 124 µg/mL

## C[C@@H](Nc1nc(N[C@H]2CCOC2)nc(C2=C(F)C(O)CCC2)n1)C(F)(F)F (mixture of isomers) [Compound 3]
[1]; [4]
  solubility at 1 h: > 1000 µg/mL
[1]; [5]
  solubility at 1 h: 716 µg/mL (≈ 1.83 mM)
IDH2-R140Q
  pIC50: 6.06

## CC(C)Nc1nc(N[C@H](C)C(F)(F)F)nc(C2=CC(O)CCC2)n1 (mixture of isomers) [Compound 124, 3-(4-(Isopropylamino)-6-(((R)-1,1,1-trifluoropropan-2-yl)amino)-1,3,5-triazin-2-yl)cyclohex-2-en-1-ol]
IDH1-R132H
  pIC50: 6.18
[2]
  Rat liver microsome stability: 74.1%
[3]
  Mouse liver microsome stability: 44.1%
IDH2-R140Q
  pIC50: 6.86

## C[C@@H](Nc1nc(N[C@H](C)C(F)(F)F)nc(C2=CC(O)CCC2)n1)C(F)(F)F (mixture of isomers) [Compound 126]
IDH1-R132H
  pIC50: 6.54
[2]
  Rat liver microsome stability: 79.8%
[3]
  Mouse liver microsome stability: 58.2%
IDH2-R140Q
  pIC50: 7.07

## C[C@@H](Nc1nc(NC2CCC(F)(F)C2)nc(C2=CC(O)CCC2)n1)C(F)(F)F (mixture of isomers) [Compound 177]
IDH1-R132H
  pIC50: 7.03
[2]
  Rat liver microsome stability: 45.9%
[3]
  Mouse liver microsome stability: 31.0%
IDH2-R140Q
  pIC50: 7.34

## CC(C)Nc1nc(N[C@H](C)C(F)(F)F)nc(C2=C(F)C(O)C(F)CC2)n1 (single isomer, unassigned) [Compound 95]
IDH1-R132H
  pIC50: 6.50
[2]
  Rat liver microsome stability: 74.8%
[3]
  Mouse liver microsome stability: 80.1%
IDH2-R140Q
  pIC50: 7.37

## C[C@@H](Nc1nc(N[C@H](C)C(F)(F)F)nc(C2=C(F)C(O)C(F)CC2)n1)C(F)(F)F (single isomer, unassigned) [Compound 98]
IDH1-R132H
  pIC50: 6.60
[2]
  Rat liver microsome stability: 99.2%
[3]
  Mouse liver microsome stability: 83.7%
IDH2-R140Q
  pIC50: 6.46

## C[C@@H](Nc1nc(N[C@H](C)C(F)(F)F)nc(C2=C(F)C(O)C(F)(F)CC2)n1)C(F)(F)F (single isomer, unassigned) [Compound 197]
IDH1-R132H
  pIC50: 6.92
[2]
  Rat liver microsome stability: 99.5%
[3]
  Mouse liver microsome stability: 98.4%
IDH2-R140Q
  pIC50: 7.39

## OC1C(F)=C(c2nc(NC3CC(F)(F)C3)nc(NC3CC(F)(F)C3)n2)CCC1F (single isomer, unassigned) [Compound 201]
IDH1-R132H
  pIC50: 6.96
[2]
  Rat liver microsome stability: 91.6%
[3]
  Mouse liver microsome stability: 79.3%
IDH2-R140Q
  pIC50: 7.35

## OC1C(F)=C(c2nc(NC3CC(F)(F)C3)nc(NC3CC(F)(F)C3)n2)CCC1F (single isomer, unassigned) [Compound 202]
IDH1-R132H
  pIC50: 5.96
[2]
  Rat liver microsome stability: 94.2%
[3]
  Mouse liver microsome stability: 96.4%
IDH2-R140Q
  pIC50: 6.42

## C[C@@H](Nc1nc(NC2CC(F)(F)C2)nc(C2=C(F)C(O)C(F)CC2)n1)C(F)(F)F (single isomer, unassigned) [Compound 227]
IDH1-R132H
  pIC50: 7.09
[2]
  Rat liver microsome stability: 88.8%
[3]
  Mouse liver microsome stability: 81.4%
IDH2-R140Q
  pIC50: 7.32

## C[C@@H](Nc1nc(N[C@@H]2CCC(F)(F)C2)nc(C2=C(F)C(O)C(F)CC2)n1)C(F)(F)F (single isomer, unassigned) [Compound 232]
IDH1-R132H
  pIC50: 7.15
[2]
  Rat liver microsome stability: 86.6%
[3]
  Mouse liver microsome stability: 76.3%
IDH2-R140Q
  pIC50: 7.40

## OC1CCCC(c2nc(NC3CC(F)(F)C3)nc(NC3CC(F)(F)C3)n2)=C1F (centres unmarked) [Compound 5]
IDH1-R132H
  pIC50: 6.06
[2]
  Rat liver microsome stability: 76.8%
[3]
  Mouse liver microsome stability: 58.6%
IDH2-R140Q
  pIC50: 7.03

## [2H]C1(O)CCCC(c2nc(NC3CC(F)(F)C3)nc(NC3CC(F)(F)C3)n2)=C1F (centres unmarked) [Compound 19]
IDH1-R132H
  pIC50: 6.38
[2]
  Rat liver microsome stability: 83.8%
[3]
  Mouse liver microsome stability: 66.2%
IDH2-R140Q
  pIC50: 7.08

## [2H]C1([2H])CCC(c2nc(NC3CC(F)(F)C3)nc(N[C@@H](C)C(F)(F)F)n2)=C(F)C1O (some centres unmarked) [Compound 84]
IDH1-R132H
  pIC50: 6.57
[2]
  Rat liver microsome stability: 67.8%
[3]
  Mouse liver microsome stability: 78.9%
IDH2-R140Q
  pIC50: 7.32

## [2H]C1([2H])CCC(c2nc(NC3CC(F)(F)C3)nc(NC3CC(F)(F)C3)n2)=C(F)C1O (centres unmarked) [Compound 85]
IDH1-R132H
  pIC50: 6.68
[2]
  Rat liver microsome stability: 78.1%
[3]
  Mouse liver microsome stability: 64.0%
IDH2-R140Q
  pIC50: 7.46

## [2H]C1([2H])CCC(c2nc(N[C@@H](C)C(F)(F)F)nc(N[C@@H](C)C(F)(F)F)n2)=C(F)C1O (some centres unmarked) [Compound 87]
IDH1-R132H
  pIC50: 6.11
[2]
  Rat liver microsome stability: 97.9%
[3]
  Mouse liver microsome stability: 88.5%
IDH2-R140Q
  pIC50: 6.69

## CC(C)Nc1nc(N[C@H](C)C(F)(F)F)nc(C2=C(F)C(O)C(F)(F)CC2)n1 (stereo partly drawn) [Compound 94, 2,6,6-Trifluoro-3-(4-(isopropylamino)-6-(((R)-1,1,1-trifluoropropan-2-yl)amino)-1,3,5-triazin-2-yl)cyclohex-2-en-1-ol]
IDH1-R132H
  pIC50: 5.94
[2]
  Rat liver microsome stability: 82.6%
[3]
  Mouse liver microsome stability: 65.4%
IDH2-R140Q
  pIC50: 6.88

## OC1C=C(c2nc(NC3CC(F)(F)C3)nc(NC3CC(F)(F)C3)n2)CCC1 (centres unmarked) [Compound 127]
IDH1-R132H
  pIC50: 6.69
[2]
  Rat liver microsome stability: 49.8%
[3]
  Mouse liver microsome stability: 28.7%
IDH2-R140Q
  pIC50: 7.19

## OC1C(F)=C(c2nc(NC3CC(F)(F)C3)nc(NC3CC(F)(F)C3)n2)CCC1(F)F (centres unmarked) [Compound 203]
IDH1-R132H
  pIC50: 6.13
[2]
  Rat liver microsome stability: 92.1%
[3]
  Mouse liver microsome stability: 91.3%
IDH2-R140Q
  pIC50: 7.01

## C[C@@H](Nc1nc(NC2CC(F)(F)C2)nc(C2=C(F)C(O)C(F)(F)CC2)n1)C(F)(F)F (stereo partly drawn) [Compound 259, 3-(4-((3,3-Difluorocyclobutyl)amino)-6-(((R)-1,1,1-trifluoropropan-2-yl)amino)-1,3,5-triazin-2-yl)-2,6,6-trifluorocyclohex-2-en-1-ol]
IDH1-R132H
  pIC50: 6.67
[2]
  Rat liver microsome stability: 95.1%
[3]
  Mouse liver microsome stability: 86.9%
IDH2-R140Q
  pIC50: 7.24

## Nc1nc(N)nc(C2=C(F)C(O)C(F)(F)CC2)n1 (centres unmarked) [Compound 284, 3-(4,6-Diamino-1,3,5-triazin-2-yl)-2,6,6-trifluorocyclohex-2-en-1-ol]
[1]; [4]
  solubility at 1 h: 789 µg/mL (≈ 3.02 mM)
[1]; [5]
  solubility at 1 h: 818 µg/mL (≈ 3.13 mM)
